# Laboratory results taken from patent publication US9745360B2 (Sanofi, priority 2012, dated 2017).
# Read-outs that look alike come from different tables or passages of the source. *1 amine or outer side, *2 acyl side, *3 side chain or, on linkers, in order; H or OH if unused. Where a SMILES comes first, the peptide text is derived from it. Side-chain parts run from the residue outwards. [ ]: non-standard residue; d: D form. The star is where a group is joined. γGlu = O=C(O)[C@H](CCC(=O)[*:2])N[*:1]; Palmitoyl = CCCCCCCCCCCCCCCC(=O)*; αMeK = C[C@](N)(CCCCN)C(=O)O; Aib = CC(C)(N)C(=O)O
# Key:
# [1] = Solubility testing in buffer, HPLC-UV of supernatant; type: physicochemical; settings: buffer, target concentration 1.0 mg/mL
# Procedure: Solubility and chemical stability of peptidic compounds were assessed as described in Methods.
# [2] = system: female diabetic dbdb-mice; assay: 4 weeks of treatment: glucose, HbA1c and oral glucose tolerance in female diabetic dbdb-mice (method 4); type: in vivo; settings: 3 and 10 μg/kg s.c. once daily
# Procedure: 8 week old, female diabetic dbdb-mice of mean non-fasted glucose value of 14.5 mmol/l and a body weight of 37-40 g were used. Mice were individually marked and were adapted to housing conditions for at least one week. 7 days prior to study start, baseline values for non-fasted glucose and HbA1c were determined, 5 days prior to study start, mice were assigned to groups and cages (5 mice per cage, 10 per group) according to their HbA1c values to ensure even distribution of lower and higher values between groups (stratification).
# Mice were treated for 4 weeks, by once daily subcutaneous administration 3 hours prior to the dark phase (6 pm to 6 am). Blood samples from a tail tip incision were obtained for HbA1c on study day 21 and oral glucose tolerance was assessed in the 4th week. Oral glucose tolerance test was done in the morning without prior extra compound administration to majorly assess the effect of chronic treatment and less of acute compound administration. Mice were fasted for 4 hours prior to oral glucose administration (2 g/kg, t=0 min). Blood samples were drawn prior to glucose administration and at 15, 30, 60, 90, 120, and 180 min thereafter. Feed was returned after the last blood sampling. Results are represented as change from baseline, glucose in mmol/l and HbA1c in %.
# Statistical analyses are performed with Everstat Version 6.0 based on SAS by 1-way-ANOVA, followed by Dunnett's post-hoc test against vehicle-control. Differences are considered statistically significant at the p<0.05 level.
# Female dbdb-mice, received 3 and 10 μg/kg of SEQ ID NO: 11 or phosphate buffered saline (vehicle control) once daily, subcutaneously over four weeks. […] (FIG. 3).
# [3] = system: female NMRI-mice; assay: Gastric emptying and intestinal passage in female NMRI-mice; type: in vivo
# Procedure: Female NMRI-mice of a body weight between 20 and 30 g were used. Mice were adapted to housing conditions for at least one week.
# Mice were overnight fasted, while water remained available all the time. On the study day, mice were weighed, single-caged and allowed access to 500 mg of feed for 30 min, while water was removed. At the end of the 30 min feeding period, remaining feed was removed and weighed. Then, the test compound/reference compound or its vehicle in the control group was administered subcutaneously. 60 min later, to allow the compound to reach relevant plasma exposure, a coloured, non-caloric bolus was instilled via gavage into the stomach. After another 30 min, the animals were sacrificed and the stomach and the small intestine prepared. The filled stomach was weighed, emptied, carefully cleaned and dried and reweighed. The stomach content, calculated as weight of filled subtracted by the weight of emptied stomach, indicated the degree of gastric emptying. The small intestine was straightened without force and measured in length. Then the distance from the gastric beginning of the gut to the tip of the farthest travelled intestinal content bolus was measured. The intestinal passage was given as ratio in percent of the latter distance and the total length of the small intestine.
# Statistical analyses were performed with Everstat 6.0 by 1-way-ANOVA, followed by Dunnett's as post-hoc test. Dunnett's Test was applied to compare versus vehicle control. Differences were considered statistically significant at the p<0.05 level.
# Female NMRI-mice, weighing on average 25-30 g, received 1, 10 and 100 μg/kg of SEQ ID NO: 11, or phosphate buffered saline (vehicle control) subcutaneously, 30 min prior to the administration of the coloured bolus. 30 min later, the assessment of stomach contents and intestinal passage was done (FIG. 8).
compound,measurement,setting,value
"CCCCCCCCCCCCCCCC(=O)N[C@@H](CCC(=O)NCCCC[C@H](NC(=O)[C@H](CCC(N)=O)NC(=O)[C@@H](NC(=O)[C@H](CO)NC(=O)[C@H](CC(C)C)NC(=O)[C@H](CC(=O)O)NC(=O)[C@H](CO)NC(=O)[C@@H](NC(=O)[C@H](Cc1ccccc1)NC(=O)[C@@H](NC(=O)CNC(=O)[C@H](CCC(=O)O)NC(=O)C(C)(C)NC(=O)[C@@H](N)Cc1ccc(O)cc1)[C@@H](C)O)[C@@H](C)O)[C@@H](C)CC)C(=O)N[C@@H](CCC(=O)O)C(=O)N[C@@H](CCC(=O)O)C(=O)N[C@@H](CCCNC(=N)N)C(=O)N[C@@H](C)C(=O)N[C@@H](C)C(=O)N[C@@](C)(CCCCN)C(=O)N[C@@H](CCC(=O)O)C(=O)N[C@@H](Cc1ccccc1)C(=O)N[C@H](C(=O)N[C@@H](CCC(=O)O)C(=O)N[C@@H](Cc1c[nH]c2ccccc12)C(=O)N[C@@H](CC(C)C)C(=O)N[C@@H](CCCCN)C(=O)N[C@@H](CC(N)=O)C(=O)N[C@H](C(=O)NCC(=O)N1CCC[C@H]1C(=O)N[C@@H](CO)C(=O)N[C@@H](CO)C(=O)NCC(=O)N[C@@H](C)C(=O)N1CCC[C@H]1C(=O)N1CCC[C@H]1C(=O)N1CCC[C@H]1C(=O)N[C@@H](CO)C(N)=O)[C@@H](C)O)[C@@H](C)CC)C(=O)O [SEQ ID NO: 11, Y-Aib-E-G-T-F-T-S-D-L-S-I-Q-K(γE-x53)-E-E-R-A-A-(S)MeLys-E-F-I-E-W-L-K-N-T-G-P-S-S-G-A-P-P-P-S-NH2] (H-Y[Aib]EGTFTSDLSIQK([γGlu-Palmitoyl])EERAA[αMeK]EFIEWLKNTGPSSGAPPPS-NH2)",solubility at 2 h,"[1]; pH 4.5, read-out: Solubility (pH 4.5)",0.964 mg/mL
same,solubility at 2 h,"[1]; pH 7.4, read-out: Solubility (pH 7.4)",0.9 mg/mL
same,oral glucose tolerance,"[2]; 4th week, 2 g/kg oral glucose",improved oral glucose tolerance
same,non-fasted glucose compared to vehicle control,[2]; four weeks,reduced statistically significant
same,HbA1c compared to vehicle control,"[2]; four weeks, p<0.05",prevented an increase of HbA1c in a statistical significant manner
same,reduction of AUC under the glucose curve compared to vehicle control,"[2]; oral glucose tolerance test, p<0.05",reached statistical significance
same,increase of remaining gastric contents,[3]; 1 μg/kg s.c.,17%
same,reduction of intestinal passage,[3]; 1 μg/kg s.c.,44%
same,increase of remaining gastric contents,[3]; 10 μg/kg s.c.,97%
same,reduction of intestinal passage,[3]; 10 μg/kg s.c.,68%
same,increase of remaining gastric contents,[3]; 100 μg/kg s.c.,106%
same,reduction of intestinal passage,[3]; 100 μg/kg s.c.,69%
